From US7645882B2, “Inhibitor of protein modification products formation” (priority 2003, dated 2010)

Tests used:
[1] = tested on: middle cerebral artery ischemia-reperfusion model; experiment: Cerebroprotective action in middle cerebral artery ischemia-reperfusion model; assay type: in vivo, rat; settings: for rotor rod test, ratio to before occlusion (%), Ave: reperfusion vs before occlusion
Method: CD(SD)IGS male rats (Japan Charles river Kabushiki kaisha, Hino farm, room No. 22, specific product) (8 rats per one group) having body weight 270 to 350 g were anesthetized by 2% isoflurane (mixed bas comprising of 70% N2O (laughter gas) and 30% O2) to immobilize, and then the rats were put on warming plate to keep the rectal and brain temperature 37 to 38° C. After that, to observe the stability in the examination, cannula which was made by polyethylene (PE-50, Becton Dickinson) was inserted and left in caudal artery of said animal, and this made blood drawing and blood pressure determining to monitor the biochemical parameter such as blood sugar level, hematocrit, CO2 concentration, oxygen partial pressure, pH, blood pressure and etc. In addition, cerebral blood flow in cortex was determined by laser doppler fluorometry (Neuroscience.inc: OMEGA FLOW (FLO-C1)), putting the detection site directly on cranium on the point left 4 mm from bregma. Left neck of such animal was incised, and from internal and external carotid fork of common carotid artery to upstream of internal carotid, nylon surgical thread (length 16 mm, diameter 0.2 to 0.3 mm, with silicon coating on its tip 3 mm) was passed and left, middle cerebral artery was obstructed for 2 hours. After that, the thread was removed to release the middle cerebral artery, and blood was reperfused for 21 hours. To each animals, 3.0 mg/kg of edaravone (control) and 5.58 mg/kg of TM-2002 were respectively administered twice by cannula which is left in caudal artery 5 minutes and 5 hours after middle cerebral artery occlusion. After said operation, the brain was removed from said animal, and after preparing 7 brain slices with 2 mm thickness, to TTC stain (0.8 g of 2,3,5-triphenyltetrazolium chloride (Sigma) dissolved in 40 ml of saline) were soaked at 37° C. for 15 minutes to stain, the area of infarction and fixed by 10% neutral formalin liquid to prepare specimen. Such specimens were created the image by CCD camera respectively, and analysed according to method of Swanson et al. (J Cereb Blood Flow Metab 10:290-293; 1994). […] Furthermore, function recovering was estimated before and after the operation by rotor rod test that estimates how much they can walk on rotating rotor.

[2] = tested on: normal rat (WKY rat); experiment: Vitamin B6 deficiency in normal rat; assay type: in vivo; settings: 13 mg/kg/rat/once twice daily by sonde, 20 weeks
Method: TM-2002 was administered to normal rat (WKY rat: Japan SLC) to examine the presence of vitamin B6 deficiency. Aminoguanidine, which is known its vitamin B6 capturing effect was used as control. Each group involves 10 rats. 13 mg/kg/rat/once of TM-2002 or aminoguanidine suspended in carboxymethyl cellulose (0.5%) was respectively administered coercively using sonde twice a daily. Administration term was 20 weeks. The conventional diet (CRF1: Oriental yeast) was used.
After 20 weeks, the appearance of WKY rat was observed.

[3] = Solubility and stability of TM-2002 injectable lyophilized formulation; assay type: physicochemical; settings: room temperature, at 10 hours
Method: L-cystein hydrochloride (160 mg) was added to 80 ml of purified water, stirred and solved. The solution was adjust at pH 6.7 with 1N NaOH aqueous solution. Then 1 g of TM-2002 hydrochloride was added, stirred and solved, and the solution diluted with purified water to 100 ml with measuring flask. Such solution was divided into vial container of 50 ml by 6.3 ml each, frozen immediately with dry ice, and then stored at −80° C. to freeze completely. This was subjected to lyophilized for 3 days using lyophilizer. After lyophilizing, covered by rubber cap and sealed by aluminum cap using fastener, TM-2002 injectable lyophilized formulation was prepared.
To TM-2002 injectable lyophilized formulation prepared above, there was added 20 ml of purified water per 1 vial. […] TLC (Kiezel gel 60F254/developing solvent: CHCl3:MeOH=9:1/detection:UV=254 nm) was carried out to examine the change of ingredient. […] The result of TLC is represented in FIG. 16. When the solution was further diluted with saline, the stability was as same. […] The formulation is suitable for injectable lyophilized formulation which is prepared before use, and stable and usable.

[4] = Examination of stabilizing agent in TM-2002 hydrochloride solution; assay type: physicochemical
Source text: Several kind of stabilizing agent was usually used to stabilize the medicament and the effective manner is addition of antioxidant. Particularly, the material having lower oxidation-reduction potential is effective to stabilize highly oxidized compound. Accordingly, for sodium acid sulfite (NaHSO3) and L-cystein ([…]), which are usually used in injection, the stability was examined by adding such materials to TM-2002 hydrochloride aqueous solution.
The solving state of TM-2002 hydrochloride solution added sodium acid sulfite was examined in following manner; 1 ml of purified water, sodium acid sulfite (0.5 mg) and sodium acid sulfite (1 mg) solution was prepared respectively; to these solutions, there was added 63 mg of TM-2002 hydrochloride, stirred and solved; the solutions allowed to warm to room temperature to observe the solving state. […] Accordingly, the stability of TM-2002 itself will increase by using hydrochloride.
The solving state of TM-2002 hydrochloride solution added L-cystein hydrochloride was examined in following manner; 1 mg and 2 mg of L-cystein hydrochloride were dissolved in 1 ml of purified water respectively; pH was adjusted to 6.5; to these solutions, there was added 63 mg of TM-2002 hydrochloride, stirred and solved; the solutions allowed to warm to room temperature to observe the solving state. […] In addition, the degradability was observed by thin layer chromatography (TLC/Silica-gel 60F254 (Merck Japan)/developing solvent: chloroform:methanol=9:1/detection:UV=254 nm). […] Accordingly, the present invention provides lyophilized formulation comprising L-cystein by treating TM-2002 hydrochloride solution at low temperature and lyophilizing.

[5] = tested on: pentosidine; experiment: Pentosidine production inhibiting effect with BSA and arabinose; assay type: biochemical; settings: BSA and arabinose instead of plasma
Method: Fresh heparinized plasma samples were obtained after informed consent from hemodialysis patients prior to the dialysis session, and filtrated and sterilized. To the plasma (450 μL), there was added the solution of TM-2002 in dimethylsurphoxide (50 μL) (final concentration: 0.8, 2.0, 5.0 mM) incubated at 37° C. for one week. Then, the amount of pentosidine was measured.
Measurement of the amount of pentosidine was made as follows: to each incubated sample (50 μL) was added an equal volume of 10% trichloroacetic acid, followed by centrifugation at 5000 g for 5 minutes; after removal of the supernatant, the pellet was washed by 5% trichloroacetic acid (300 μL); the pellet was dried under reduced pressure and then subjected to hydrolysis in 6N HCl solution (100 μL) at 110° C. under nitrogen atmosphere for 16 hours; to the hydrolysate, 5N NaOH (100 μL) and 0.5 M phosphate buffer (pH 7.4) (200 μL) were added, followed by filtration through a porefilter with a pore size of 0.5 μm and dilution with PBS. The concentration of free pentosidine was determined by reversed-phase HPLC using a fluorescence detector (Miyata, T. et al.: Proc. Natl. Acad. Sci. USA, Vol. 93, p. 2353-2358, 1996). The effluent was monitored at 335/385 nm of excitation/emission wavelength. Synthetic pentosidine was used as the standard. The detection limit of pentosidine was 0.1 pmol/mg protein.
The plasma from patients was substituted to BSA and arabinose, and the pentosidine production inhibiting effect of another compounds (I) or (II) was measured in the same manner as [Test Examination 1]. Therein, “-” means that the examination was not carried out.

[6] = tested on: GRP78; experiment: ER stress inducing molecule expression in RIN-5F cells, western blot, GRP78; assay type: cell-based, rat; settings: tunicamycin added, 8 hours
Method: (§1) Rat pancreatic β cell line (RIN-5F) was seeded in 6 well culture plate to 1.0×10^5 cells/well, and after 24 hours, TM-2002 in DMSO (200 mM, 50 mM) were added to be final concentration 200 μM, 50 μM. After another 1 hour, 0.2 μl of tunicamycin (Sigma) in methanol(1 mg/ml) was added. After culturing 8 hours, the cells were washed 2 ml of PBS(+) twice, and the cells were dissolved in 100 μl of lysate (50 mM Tris-HCl (pH 7.5), 150 mM NaCl, 100 mM NaF, 100 mM sodium phosphate (pH 7.4), 2 mM Na3VO4, 0.1% protease inhibitor cocktail (Sigma), 1% Triton X-100). To remove the insoluble fraction of this lysate, centrifuged at 12,000×g for 10 minutes and obtained the supernatant to give cell extract. The extract was quantified its protein concentration using DC protein assay kit (Bio Rad), and each samples (1 μg) was electrophoresed by SDS-PAGE and transferred to PVDF membrane. The membrane was blocked with 5% skimmed milk/0.1% Tween20-TBS for 1 hour at room temperature, and reacted with anti-ORP150 antibody in 5% skimmed milk/0.1% Tween20-TBS (2000 folds: specific antibody), anti-GRP78 antibody (Santa Cruz) in 5% skimmed milk/0.1% Tween20-TBS (100 folds) and anti-actin antibody (Sigma) in 5% skimmed milk/0.1% Tween20-TBS (200 folds) for 2 hours. […] The detected signal was analyzed by Lane analyzer (ATTO) and calculated the signal strength. […]

[7] = tested on: ORP150; experiment: ER stress inducing molecule expression in RIN-5F cells, western blot, ORP150; assay type: cell-based, rat; settings: tunicamycin added, 8 hours
Method: as §1

[8] = 63 mg in 1 ml purified water only, pH 2 to 2.5, after 24 hours

| Molecule | Nervous condition estimation test, Ave (grading system of Bederson et al.) ([1]; after occlusion 10 min) | Nervous condition estimation test, Ave (grading system of Bederson et al.) ([1]; after occlusion 2 hrs) | Nervous condition estimation test, Ave (grading system of Bederson et al.) ([1]; after reperfusion 10 min) | Nervous condition estimation test, Ave (grading system of Bederson et al.) ([1]; after reperfusion 3 hrs) | Nervous condition estimation test, Ave (grading system of Bederson et al.) ([1]; after reperfusion 4 hrs) | Nervous condition estimation test, Ave (grading system of Bederson et al.) ([1]; after reperfusion 22 hrs) | rotor rod test, Ave (reading value of count from rotor rod machine) ([1]; before occlusion) | rotor rod test, Ave (reading value of count from rotor rod machine) ([1]; reperfusion) | rotor rod test, ratio to before occlusion (%), Ave [1] | Pentosidine production rate in 5 mM of medicament (%) [5] | other results |
| --- | --- | --- | --- | --- | --- | --- | --- | --- | --- | --- | --- |
| CC1=NN(c2ccccc2)C(=O)C1 [Edaravone, 3-methyl-1-phenyl-2-pyrazolin-5-one, reference compound] | 2.8 | 2.7 | 2.2 | 2.1 | 2.0 | 1.5 | 197.0 | 153.1 | 160.4% | – | cerebral infarction nest ([1]; 2 hours occlusion, 21 hours reperfusion, edaravone 3.0 mg/kg, TM-2002 5.58 mg/kg, twice (5 minutes and 5 hours after occlusion), vs excipient): significantly reduced; improvement for nervous condition and recovering the function ([1]; compared to excipient single administration): remarkably shown |
| Cc1ncc2c(c1O)C(c1c(C)nn(-c3ccccc3)c1O)OC2 (centres unmarked) [TM-3001, 1-(5-hydroxy-3-methyl-1-phenyl-1H-pyrazol-4-yl)-6-methyl-1,3-dihydro-furo[3,4-c]pyridin-7-ol] | 2.8 | 2.6 | 1.5 | 1.3 | 2.0 | 2.0 | 183.4 | 160.6 | 78.1% | – | – |
| N=C(N)NN [aminoguanidine] | – | – | – | – | – | – | – | – | – | – | condition caused by vitamin B6 deficiency (appearance) [2]: skin inflammation, epilepsy and convulsion caused by cerebral disorder were observed |
| Cc1ncc2c(c1O)C(c1c(C)nn(-c3ccccc3)c1O)OC2.Cl (centres unmarked) [compound 69, 1-(5-hydroxy-3-methyl-1-phenyl-1H-pyrazol-4-yl)-6-methyl-1,3-dihydro-furo[3,4-c]pyridin-7-ol (hydrochloric acid salt)] | – | – | – | – | – | – | – | – | – | 2.94% | decomposition products (TLC) [3]: decomposition products were observed; TM-2002 degradation [4, 8]: significant suppress of TM-2002 degradation was observed; solving state [4, 8]: no change was observed in its solving state; solving state ([4]; 63 mg in 1 ml with 0.5 mg or 1 mg sodium acid sulfite, room temperature, after 24 hours): remarkable precipitates were observed; solving state ([4]; 63 mg in 1 ml with 1 mg or 2 mg L-cystein hydrochloride, after 24 hours): no change was observed in solving state; solving state ([4]; 63 mg in 1 ml with 1 mg or 2 mg L-cystein hydrochloride, pH adjusted to 6.5, room temperature): no precipitates and deposits was observed; stabilization (TLC) ([4]; by addition of L-cystein, room temperature): significantly stabilized; degradability (TLC) ([4]; left over 24 hours at room temperature): degraded very slowly; stability of the solution ([4]; solution with L-cystein hydrochloride, preservation at −20° C., one week): stable after one week; solving state ([4]; with sodium sulfite or sodium pyrosulfite instead of sodium acid sulfite): crystal precipitate was deposited |
| CCOC(=O)C1=NN(c2ccccc2)/C(=C2\C(=O)N(c3ccccc3)N=C2c2ccccc2)S1 [compound 74, 5-(5-oxo-1,3-diphenyl-1,5-dihydro-pyrazol-4-ylidene)-4-phenyl-4,5-dihydro-[1,3,4]thiazole-2-carboxilic acid-ethyl este] | – | – | – | – | – | – | – | – | – | 87.24% | – |
| tunicamycin [reference compound] | – | – | – | – | – | – | – | – | – | – | GRP78 expression compared to control sample [6]: 1.46 fords; ORP150 expression compared to control sample [7]: 1.88 folds |
